# Measurements: patent US20110118350A1, “COMPOSITION FOR PREVENTING CARDIOVASCULAR EVENT IN HIGH-RISK PATIENT” (MOCHIDA PHARMACEUTICAL CO., LTD., priority 2008, published 2011)
# Test: Incidence of cardiovascular events for 5 years from the start of administration (DELIS partial analysis)
# Format: in vivo, human
# Settings: for Ratio of incidence reduction (%): EPA-E vs control group; for Incidence (%) of cardiovascular events / Number of cardiovascular events: 5 years
# Excerpt: This trial corresponds to a partial analysis of the results obtained in DELIS (Japan EPA Lipid Intervention Study) which is a large scale clinical trial of high purity EPA preparation which was presented in the American College of Cardiology 2005 Annual Meeting (for general information on DELIS, see Lancet, vol. 369, pp. 1090-1098 (2007)). More specifically, of 18,645 subject patients of the DELIS trial (EPA group (9,326 cases) and control group (9,319 cases)), 15534 cases (sum of the control group and EPA group) were analyzed for the composition of plasma fatty acids and divided based on the average of the plasma OA/SA ratio during the whole observation period into three groups (i.e., a group having an OA/SA ratio of less than 2.6, a group having an OA/SA ratio of at least 2.6 but less than 3.0, and a group having an OA/SA ratio of at least 3.0) so that the three groups were approximately equal in number, and the groups were compared for the incidence of cardiovascular events for 5 years from the start of administration. The EPA group was orally administered with Epadel (EPA-E available from Mochida Pharmaceutical Co., Ltd.) typically at an adult dose of 600 mg per administration and 3 times a day immediately after the meal. However, in the case of abnormal serum TG, the dose could be increased to 900 mg per administration and 3 times a day depending on the degree of abnormality. In both groups, pravastatin sodium (Mevalotin™ tablets and fine granules, Daiichi Sankyo Co., Ltd.), simvastatin (Lipovas™ tablets, Banyu Pharmaceutical Co., Ltd.), or atorvastatin calcium hydrate (Lipitor™ tablets, Astellas Pharma Inc. and Pfizer Inc.) was used for the base drug, and these drugs were orally administered according to the prescribed dosage regimen. This trial corresponds to a partial analysis of the results obtained in DELIS as in Example 1. More specifically, primary prevention cases combined with secondary prevention cases, only primary prevention cases, and only secondary prevention cases were respectively divided into four groups based on the plasma OA level or the plasma SA level at the start of administration so that the four groups were approximately equal in number. The groups were compared for the incidence of cardiovascular events for 5 years from the start of administration.
# [1] = primary + secondary prevention cases, Total (oleic acid grouping)
# [2] = primary + secondary prevention cases, Total (stearic acid grouping)
# [3] = primary + secondary prevention cases, oleic acid at start 22.1< mol %
# [4] = primary + secondary prevention cases, oleic acid at start >18.2-20.1 mol %
# [5] = primary + secondary prevention cases, oleic acid at start >20.1-22.1 mol %
# [6] = primary + secondary prevention cases, oleic acid at start −18.2 mol %
# [7] = primary + secondary prevention cases, stearic acid at start 7.35< mol %
# [8] = primary + secondary prevention cases, stearic acid at start >6.46-6.89 mol %
# [9] = primary + secondary prevention cases, stearic acid at start >6.89-7.35 mol %
# [10] = primary + secondary prevention cases, stearic acid at start −6.46 mol %
# [11] = primary prevention cases, Total (oleic acid grouping)
# [12] = primary prevention cases, Total (stearic acid grouping)
# [13] = primary prevention cases, oleic acid at start 21.9< mol %
# [14] = primary prevention cases, oleic acid at start >18.1-19.9 mol %
# [15] = primary prevention cases, oleic acid at start >19.9-21.9 mol %
# [16] = primary prevention cases, oleic acid at start −18.1 mol %
# [17] = primary prevention cases, stearic acid at start 7.33< mol %
# [18] = primary prevention cases, stearic acid at start >6.46-6.89 mol %
# [19] = primary prevention cases, stearic acid at start >6.89-7.33 mol %
# [20] = primary prevention cases, stearic acid at start −6.46 mol %
# [21] = secondary prevention cases, Total (oleic acid grouping)
# [22] = secondary prevention cases, Total (stearic acid grouping)
# [23] = secondary prevention cases, oleic acid at start 22.1< mol %
# [24] = secondary prevention cases, oleic acid at start >18.2-20.1 mol %
# [25] = secondary prevention cases, oleic acid at start >20.1-22.1 mol %
# [26] = secondary prevention cases, oleic acid at start −18.2 mol %
# [27] = secondary prevention cases, stearic acid at start 7.38< mol %
# [28] = secondary prevention cases, stearic acid at start >6.46-6.90 mol %
# [29] = secondary prevention cases, stearic acid at start >6.90-7.38 mol %
# [30] = secondary prevention cases, stearic acid at start −6.46 mol %
smiles,measurement,setting,value
"CC/C=C\C/C=C\C/C=C\C/C=C\C/C=C\CCCC(=O)OCC [EPA-E, ethyl icosapentate]",Ratio of incidence reduction (%),[1],13.2%
same,Ratio of incidence reduction (%),[2],13.2%
same,Ratio of incidence reduction (%),[3],30.3%
same,Ratio of incidence reduction (%),[4],14.6%
same,Ratio of incidence reduction (%),[5],−2.0%
same,Ratio of incidence reduction (%),[6],−5.3%
same,Ratio of incidence reduction (%),[7],39.5%
same,Ratio of incidence reduction (%),[8],−13.9%
same,Ratio of incidence reduction (%),[9],26.6%
same,Ratio of incidence reduction (%),[10],1.8%
same,Ratio of incidence reduction (%),[11],11.1%
same,Ratio of incidence reduction (%),[12],11.1%
same,Ratio of incidence reduction (%),[13],30.4%
same,Ratio of incidence reduction (%),[14],26.1%
same,Ratio of incidence reduction (%),[15],−20.6%
same,Ratio of incidence reduction (%),[16],−12.2%
same,Ratio of incidence reduction (%),[17],17.0%
same,Ratio of incidence reduction (%),[18],−17.3%
same,Ratio of incidence reduction (%),[19],19.5%
same,Ratio of incidence reduction (%),[20],22.0%
same,Ratio of incidence reduction (%),[21],15.5%
same,Ratio of incidence reduction (%),[22],15.5%
same,Ratio of incidence reduction (%),[23],40.8%
same,Ratio of incidence reduction (%),[24],−3.4%
same,Ratio of incidence reduction (%),[25],8.1%
same,Ratio of incidence reduction (%),[26],3.0%
same,Ratio of incidence reduction (%),[27],65.2%
same,Ratio of incidence reduction (%),[28],−19.9%
same,Ratio of incidence reduction (%),[29],38.7%
same,Ratio of incidence reduction (%),[30],−26.0%
same,effect on incidence and/or rate of recurrence of cardiovascular events,patients with an OA level exceeding 22.1 mol % or an SA level exceeding 7.38 mol %,reduced incidence and/or rate of recurrence of cardiovascular events
same,Incidence (%) of cardiovascular events,[1],3.8%
same,Number of cardiovascular events,[1],266
same,Incidence (%) of cardiovascular events,[2],3.8%
same,Number of cardiovascular events,[2],266
same,Incidence (%) of cardiovascular events,[3],4.7%
same,Number of cardiovascular events,[3],77
same,Incidence (%) of cardiovascular events,[4],3.1%
same,Number of cardiovascular events,[4],55
same,Incidence (%) of cardiovascular events,[5],4.4%
same,Number of cardiovascular events,[5],76
same,Incidence (%) of cardiovascular events,[6],3.3%
same,Number of cardiovascular events,[6],58
same,Incidence (%) of cardiovascular events,[7],2.5%
same,Number of cardiovascular events,[7],44
same,Incidence (%) of cardiovascular events,[8],4.9%
same,Number of cardiovascular events,[8],81
same,Incidence (%) of cardiovascular events,[9],3.2%
same,Number of cardiovascular events,[9],56
same,Incidence (%) of cardiovascular events,[10],4.8%
same,Number of cardiovascular events,[10],85
same,Incidence (%) of cardiovascular events,[11],2.5%
same,Number of cardiovascular events,[11],140
same,Incidence (%) of cardiovascular events,[12],2.5%
same,Number of cardiovascular events,[12],140
same,Incidence (%) of cardiovascular events,[13],2.8%
same,Number of cardiovascular events,[13],40
same,Incidence (%) of cardiovascular events,[14],1.9%
same,Number of cardiovascular events,[14],27
same,Incidence (%) of cardiovascular events,[15],3.2%
same,Number of cardiovascular events,[15],46
same,Incidence (%) of cardiovascular events,[16],1.8%
same,Number of cardiovascular events,[16],27
same,Incidence (%) of cardiovascular events,[17],1.9%
same,Number of cardiovascular events,[17],27
same,Incidence (%) of cardiovascular events,[18],3.1%
same,Number of cardiovascular events,[18],43
same,Incidence (%) of cardiovascular events,[19],2.4%
same,Number of cardiovascular events,[19],34
same,Incidence (%) of cardiovascular events,[20],2.4%
same,Number of cardiovascular events,[20],36
same,Incidence (%) of cardiovascular events,[21],10.2%
same,Number of cardiovascular events,[21],126
same,Incidence (%) of cardiovascular events,[22],10.2%
same,Number of cardiovascular events,[22],126
same,Incidence (%) of cardiovascular events,[23],9.5%
same,Number of cardiovascular events,[23],27
same,Incidence (%) of cardiovascular events,[24],8.7%
same,Number of cardiovascular events,[24],28
same,Incidence (%) of cardiovascular events,[25],11.5%
same,Number of cardiovascular events,[25],37
same,Incidence (%) of cardiovascular events,[26],11.2%
same,Number of cardiovascular events,[26],34
same,Incidence (%) of cardiovascular events,[27],4.3%
same,Number of cardiovascular events,[27],14
same,Incidence (%) of cardiovascular events,[28],14.2%
same,Number of cardiovascular events,[28],41
same,Incidence (%) of cardiovascular events,[29],6.9%
same,Number of cardiovascular events,[29],22
same,Incidence (%) of cardiovascular events,[30],16.4%
same,Number of cardiovascular events,[30],49
